EC50 data for four compounds are collected here from US10004786B2 (Zealand Pharma A/S, priority 2009, dated 2018).

The structures appear in SMILES notation. Numbered stars: 1 amine (or outer) side, 2 acyl side, 3 side chain; on linkers, the order of the positions; unused ones are H or OH. Square brackets hold non-standard residues; d marks the D form. Side chains are listed from the residue outwards. Peptide text beside a SMILES is read from it. * marks the point of attachment. γGlu = O=C(O)[C@H](CCC(=O)[*:2])N[*:1]; Palmitoyl = CCCCCCCCCCCCCCCC(=O)*; Aib = CC(C)(N)C(=O)O

The target of the test is T1, human Glucagon-R (Homo sapiens, UniProt P47871).
T1 construct: expressed in transfected cells
T1 sequence (P47871 26-477): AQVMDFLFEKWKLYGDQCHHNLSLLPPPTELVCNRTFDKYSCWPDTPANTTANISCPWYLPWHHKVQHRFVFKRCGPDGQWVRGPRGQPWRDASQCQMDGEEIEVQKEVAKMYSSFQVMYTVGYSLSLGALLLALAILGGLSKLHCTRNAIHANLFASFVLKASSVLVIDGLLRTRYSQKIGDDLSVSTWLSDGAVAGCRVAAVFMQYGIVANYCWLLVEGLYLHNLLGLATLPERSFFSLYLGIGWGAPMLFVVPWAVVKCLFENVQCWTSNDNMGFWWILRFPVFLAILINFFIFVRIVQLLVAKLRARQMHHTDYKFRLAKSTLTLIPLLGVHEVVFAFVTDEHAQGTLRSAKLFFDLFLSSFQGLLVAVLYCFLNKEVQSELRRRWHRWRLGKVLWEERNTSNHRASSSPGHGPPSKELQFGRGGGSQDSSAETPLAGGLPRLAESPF
As to the kind of experiment: Glucagon receptor efficacy assay (cAMP formation in HEK293 cells expressing human Glucagon-R). It is filed as cell-based. Conditions: Table 1a, HEK293 cells expressing hGlucagonR, read-out: EC50 (nM) GluR. The procedure:
The 5′-end primers additionally encoded a near Kozak consensus sequence to ensure efficient translation.
48 hr after transfection cells were seeded for limited dilution cloning and selected with 1 mg/ml G418 in the culture medium.
On the day of analysis, growth medium was removed and the cells washed once with 200 μl Tyrode buffer. […] The reaction was stopped by addition of 25 μl 0.5 M HCl and incubated on ice for 60 min. The cAMP content was estimated using the FlashPlate® cAMP kit from Perkin-Elmer.
Efficacy of the GluGLP-1 agonists were estimated by exposing cells expressing hGlucagonR and hGLP-1R to the listed acylated compounds at increasing concentrations and measuring the formed cAMP as described in Methods.
Background: cAMP levels reflect the balance of adenylyl cyclase and phosphodiesterase activity.
As for `CCCCCCCCCCCCCCCC(=O)NCCCC(=O)NCCCC[C@H](NC(=O)[C@H](CO)NC(=O)[C@H](CC(=O)O)NC(=O)[C@H](CC(C)C)NC(=O)[C@H](Cc1ccc(O)cc1)NC(=O)[C@H](CCCCN)NC(=O)[C@H](CO)NC(=O)[C@H](Cc1ccc(O)cc1)NC(=O)[C@H](CC(=O)O)NC(=O)[C@H](CO)NC(=O)[C@@H](NC(=O)[C@H](Cc1ccccc1)NC(=O)[C@@H](NC(=O)CNC(=O)[C@H](CCC(N)=O)NC(=O)C(C)(C)NC(=O)[C@@H](N)Cc1c[nH]cn1)[C@@H](C)O)[C@@H](C)O)C(=O)N[C@@H](C)C(=O)N[C@@H](C)C(=O)N[C@@H](Cc1c[nH]cn1)C(=O)N[C@@H](CC(=O)O)C(=O)N[C@@H](Cc1ccccc1)C(=O)N[C@H](C(=O)N[C@@H](CCC(=O)O)C(=O)N[C@@H](Cc1c[nH]c2ccccc12)C(=O)N[C@@H](CC(C)C)C(=O)N[C@@H](CC(C)C)C(=O)N[C@@H](CO)C(=O)N[C@@H](C)C(N)=O)C(C)C` [Compound 27], the EC50 was found to be 0.147 nM. With `CCCCCCCCCCCCCCCC(=O)N[C@@H](CCC(=O)NCCCC[C@H](NC(=O)[C@H](C)NC(=O)[C@H](C)NC(=O)[C@H](CCCCN)NC(=O)[C@H](CO)NC(=O)[C@H](CC(=O)O)NC(=O)[C@H](CC(C)C)NC(=O)[C@H](Cc1ccc(O)cc1)NC(=O)[C@H](CCCCN)NC(=O)[C@H](CO)NC(=O)[C@H](Cc1ccc(O)cc1)NC(=O)[C@H](CC(=O)O)NC(=O)[C@H](CO)NC(=O)[C@@H](NC(=O)[C@H](Cc1ccccc1)NC(=O)[C@@H](NC(=O)CNC(=O)[C@H](CCC(N)=O)NC(=O)C(C)(C)NC(=O)[C@@H](N)Cc1c[nH]cn1)[C@@H](C)O)[C@@H](C)O)C(=O)N[C@@H](CC(=O)O)C(=O)N[C@@H](Cc1ccccc1)C(=O)N[C@H](C(=O)N[C@@H](CCC(=O)O)C(=O)N[C@@H](Cc1c[nH]c2ccccc12)C(=O)N[C@@H](CC(C)C)C(=O)N[C@@H](CC(C)C)C(=O)N[C@@H](CO)C(=O)N[C@@H](C)C(N)=O)C(C)C)C(=O)O` [Compound 35] (H-H[Aib]QGTFTSDYSKYLDSKAAK([γGlu-Palmitoyl])DFVEWLLSA-NH2), the EC50 came to 0.18 nM. Then `CCCCCCCCCCCCCCCC(=O)N[C@@H](CCC(=O)NCCCC[C@H](NC(=O)[C@H](CC(C)C)NC(=O)[C@H](CC(C)C)NC(=O)[C@H](Cc1c[nH]c2ccccc12)NC(=O)[C@H](CCC(=O)O)NC(=O)[C@@H](NC(=O)[C@H](Cc1ccccc1)NC(=O)[C@H](CC(=O)O)NC(=O)[C@H](Cc1c[nH]cn1)NC(=O)[C@H](C)NC(=O)[C@H](C)NC(=O)[C@H](CCCCN)NC(=O)[C@H](CO)NC(=O)[C@H](CC(=O)O)NC(=O)[C@H](CC(C)C)NC(=O)[C@H](Cc1ccc(O)cc1)NC(=O)[C@H](CCCCN)NC(=O)[C@H](CO)NC(=O)[C@H](Cc1ccc(O)cc1)NC(=O)[C@H](CC(=O)O)NC(=O)[C@H](CO)NC(=O)[C@@H](NC(=O)[C@H](Cc1ccccc1)NC(=O)[C@@H](NC(=O)CNC(=O)[C@H](CCC(N)=O)NC(=O)C(C)(C)NC(=O)[C@@H](N)Cc1c[nH]cn1)[C@@H](C)O)[C@@H](C)O)C(C)C)C(=O)N[C@@H](C)C(N)=O)C(=O)O` [Compound 37] (H-H[Aib]QGTFTSDYSKYLDSKAAHDFVEWLLK([γGlu-Palmitoyl])A-NH2), with 0.147 nM. The result for `CCCCCCCCCCCCCCCC(=O)N[C@@H](CCC(=O)NCCCC[C@H](NC(=O)[C@H](CO)NC(=O)[C@H](CC(=O)O)NC(=O)[C@H](CC(C)C)NC(=O)[C@H](Cc1ccc(O)cc1)NC(=O)[C@H](CCCCN)NC(=O)[C@H](CO)NC(=O)[C@H](Cc1ccc(O)cc1)NC(=O)[C@H](CC(=O)O)NC(=O)[C@H](CO)NC(=O)[C@@H](NC(=O)[C@H](Cc1ccccc1)NC(=O)[C@@H](NC(=O)CNC(=O)[C@H](CCC(N)=O)NC(=O)C(C)(C)NC(=O)[C@@H](N)Cc1c[nH]cn1)[C@@H](C)O)[C@@H](C)O)C(=O)N[C@@H](C)C(=O)N[C@@H](C)C(=O)N[C@@H](CCC(=O)O)C(=O)N[C@@H](CC(=O)O)C(=O)N[C@@H](Cc1ccccc1)C(=O)N[C@H](C(=O)N[C@@H](CCC(=O)O)C(=O)N[C@@H](Cc1c[nH]c2ccccc12)C(=O)N[C@@H](CC(C)C)C(=O)N[C@@H](CC(C)C)C(=O)N[C@@H](CO)C(=O)N[C@@H](C)C(N)=O)C(C)C)C(=O)O` [Compound 42] (H-H[Aib]QGTFTSDYSKYLDSK([γGlu-Palmitoyl])AAEDFVEWLLSA-NH2) reads 0.27 nM.

The EC50 is the midpoint of the concentration-response curve.
